# Assay results: the supplement of paper PMC10307832
# Experiments:
# Test in all cases: relative viability (nuclei count vs DMSO), 5 days (fraction); higher = more cells survive
# Pictilisib + Lapatinib = compound: CS(=O)(=O)N1CCN(Cc2cc3nc(-c4cccc5[nH]ncc45)nc(N4CCOCC4)c3s2)CC1 [Pictilisib] + CS(=O)(=O)CCNCc1ccc(-c2ccc3ncnc(Nc4ccc(OCc5cccc(F)c5)c(Cl)c4)c3c2)o1 [Lapatinib] (partner 2 µM)
# How it was run: (§1)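 Cells from lung cancer lines were seeded into 1536-well plates and, one day later, dosed by pin tool. Treatments were either a single drug or a fixed dose of an anchor drug with five library-drug doses (not always all listed) in √10 steps. After 5 days, nuclei were stained in a one-step fixation (final 0.05% Triton X-100, 1% formaldehyde, 1 ug/ml Hoechst) and counted on 4× images, and relative viability is the treated-to-vehicle nuclei ratio, as the median of duplicate plates.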
# Pictilisib + Tozasertib = compound: CS(=O)(=O)N1CCN(Cc2cc3nc(-c4cccc5[nH]ncc45)nc(N4CCOCC4)c3s2)CC1 [Pictilisib] + Cc1cc(Nc2cc(N3CCN(C)CC3)nc(Sc3ccc(NC(=O)C4CC4)cc3)n2)n[nH]1 [Tozasertib] (partner 0.1 µM)
# How it was run: as §1
# Pictilisib + Olaparib = compound: CS(=O)(=O)N1CCN(Cc2cc3nc(-c4cccc5[nH]ncc45)nc(N4CCOCC4)c3s2)CC1 [Pictilisib] + O=C(c1cc(Cc2n[nH]c(=O)c3ccccc23)ccc1F)N1CCN(C(=O)C2CC2)CC1 [Olaparib] (partner 8 µM)
# How it was run: as §1
# MK-2206 + Pictilisib = compound: NC1(c2ccc(-c3nc4ccn5c(=O)[nH]nc5c4cc3-c3ccccc3)cc2)CCC1 [MK-2206] + CS(=O)(=O)N1CCN(Cc2cc3nc(-c4cccc5[nH]ncc45)nc(N4CCOCC4)c3s2)CC1 [Pictilisib] (partner 1 µM)
# How it was run: as §1
# MK-2206 + Tozasertib = compound: NC1(c2ccc(-c3nc4ccn5c(=O)[nH]nc5c4cc3-c3ccccc3)cc2)CCC1 [MK-2206] + Cc1cc(Nc2cc(N3CCN(C)CC3)nc(Sc3ccc(NC(=O)C4CC4)cc3)n2)n[nH]1 [Tozasertib] (partner 0.1 µM)
# How it was run: as §1
Cell Line,relative viability (Pictilisib + Lapatinib; first compound 0.02 µM),relative viability (Pictilisib + Lapatinib; first compound 0.06325 µM),relative viability (Pictilisib + Lapatinib; first compound 0.6325 µM),relative viability (Pictilisib + Lapatinib; first compound 2 µM),relative viability (Pictilisib + Tozasertib; first compound 0.02 µM),relative viability (Pictilisib + Tozasertib; first compound 0.06325 µM),relative viability (Pictilisib + Tozasertib; first compound 0.6325 µM),relative viability (Pictilisib + Tozasertib; first compound 2 µM),relative viability (Pictilisib + Olaparib; first compound 0.02 µM),relative viability (Pictilisib + Olaparib; first compound 0.06325 µM),relative viability (Pictilisib + Olaparib; first compound 0.6325 µM),relative viability (Pictilisib + Olaparib; first compound 2 µM),relative viability (MK-2206 + Pictilisib; first compound 0.01 µM),relative viability (MK-2206 + Pictilisib; first compound 0.03162 µM),relative viability (MK-2206 + Pictilisib; first compound 0.3162 µM),relative viability (MK-2206 + Pictilisib; first compound 1 µM),relative viability (MK-2206 + Tozasertib; first compound 0.01 µM),relative viability (MK-2206 + Tozasertib; first compound 0.03162 µM),relative viability (MK-2206 + Tozasertib; first compound 0.3162 µM),relative viability (MK-2206 + Tozasertib; first compound 1 µM)
NCI-H2170,0.285,0.306,0.226,0.245,0.875,0.823,0.61,0.391,0.608,0.508,0.562,0.33,0.367,0.363,0.309,0.262,0.789,0.717,0.659,0.763
NCI-H1793,0.693,0.963,0.61,0.336,0.288,0.29,0.189,0.097,0.812,0.613,0.331,0.167,0.323,0.31,0.307,0.284,0.349,0.345,0.302,0.284
BEN,0.715,0.755,0.844,0.498,0.377,0.425,0.448,0.409,1.03,1.11,1.02,0.978,0.573,0.621,0.63,0.571,0.554,0.621,0.416,0.443
NCI-H647,1.15,1.11,0.833,0.429,0.323,0.338,0.291,0.0558,0.661,0.659,0.411,0.219,0.455,0.452,0.354,0.273,0.316,0.377,0.289,0.233
PC-14,0.34,0.302,0.236,0.113,0.61,0.583,0.641,0.46,0.385,0.39,0.442,0.341,0.635,0.627,0.648,0.514,0.593,0.653,0.587,0.642
HCC-78,0.685,0.749,0.594,0.181,0.427,0.46,0.309,0.281,0.727,0.548,0.529,0.351,0.25,0.202,0.204,0.162,1.52,–,0.38,0.365
NCI-H1666,0.666,0.725,0.476,0.307,0.628,0.599,0.627,0.483,0.751,0.762,0.813,0.756,0.403,0.414,0.405,0.403,0.636,0.631,0.647,0.594
COR-L 105,0.394,0.401,0.338,0.325,0.33,0.303,0.344,0.292,0.667,0.697,0.734,0.549,0.381,0.414,0.408,0.425,0.419,0.309,0.403,0.345
LU99A,0.98,1.04,0.574,0.372,0.338,0.292,0.262,0.163,0.273,0.301,0.254,0.216,0.327,0.314,0.261,0.289,0.302,0.281,0.271,0.21
NCI-H596,1.1,1.02,0.602,0.367,0.822,0.901,0.591,0.356,0.621,0.642,0.567,0.338,0.446,0.386,0.324,0.345,0.912,1.01,0.829,0.765
201T,1.02,1.01,0.969,0.933,0.99,0.963,0.82,0.556,0.844,0.815,0.811,0.604,0.669,0.696,0.651,0.648,0.962,0.931,0.98,0.948
HCC-15,0.936,0.91,0.789,0.692,0.37,0.379,0.275,0.153,0.758,0.772,0.638,0.504,0.727,0.785,0.643,0.626,0.397,0.394,0.28,0.235
